Where a name gives a salt, the structure may show the parent alone. Bridge positions count the residues as written; N and C are the ends. Square brackets hold non-standard residues; d marks the D form. Peptide text beside a SMILES is read from it. * marks the point of attachment. Ileψ(thiazoline)Cys = CC[C@H](C)[C@H](N)C1=N[C@H](C(=O)*)CS1; dOrn = NCCC[C@@H](N)C(=O)O
Each compound was assayed on ATGL-KO iPSCs (assay: High throughput iPSC chemical screening, Oil Red O (ORO) lipid accumulation). Conditions: not given.
Format: cell-based, mouse
For Z-score in this document: test concentration or dose not given here.

| Compound | Z-score |
| --- | --- |
| C[C@]12CC[C@@H](O)C[C@@H]1CC[C@@H]1[C@@H]2CC[C@]2(C)C(=O)CC[C@@H]12 [Androsterone] | 1.156 |
| CC(C)(C)CC(C)(C)c1ccc(OCCOCC[N+](C)(C)Cc2ccccc2)cc1 [Benzethonium chloride] | 8.105 |

Same assay, conditions: glycolytic switch compounds

| Compound | Rank in normalized ORO score from screen |
| --- | --- |
| O=C1O[C@H]([C@@H](O)CO)C(O)=C1O [Ascorbic acid] | 764 |
| OC(CCN1CCCCC1)(c1ccccc1)C1CC2C=CC1C2 (stereo not drawn) [Biperiden hydrochloride] | 135 |

Same assay, conditions: normalized ORO level vs DMSO-treated cells; compound present during 7 days differentiation, 96-well; negative = decrease in lipid accumulation

| Compound | Z-score |
| --- | --- |
| C[C@@H]1[C@H](O)[C@@H](C)/C=C/C=C/C=C/C=C/C=C/C=C/C=C/[C@H](O[C@@H]2O[C@H](C)[C@@H](O)[C@H](N)[C@@H]2O)C[C@@H]2O[C@](O)(C[C@@H](O)C[C@@H](O)[C@H](O)CC[C@@H](O)C[C@@H](O)CC(=O)O[C@H]1C)C[C@H](O)[C@H]2C(=O)O [Amphotericin B] | 0.5223 |
| CC1(C)S[C@@H]2[C@H](NC(=O)[C@H](N)c3ccccc3)C(=O)N2[C@H]1C(=O)O [Ampicillin trihydrate] | −1.3793 |
| CCCc1ncc(C[n+]2ccccc2C)c(N)n1 [Amprolium hydrochloride] | 0.8329 |
| Cc1c(N)c(=O)n(-c2ccccc2)n1C [Ampyrone] | −0.2996 |
| Nc1cc(-c2ccncc2)c[nH]c1=O [Amrinone] | 1.535 |
| c1cncc([C@@H]2CCCCN2)c1 [Anabasine] | −0.7781 |
| COc1ccc(C[C@H]2NC[C@H](O)[C@H]2OC(C)=O)cc1 [Anisomycin] | 30.3787 |
| Cc1c(O)c(=O)n(-c2ccccc2)n1C [Antipyrine, 4-hydroxy] | 0.52 |
| Cc1cc(=O)n(-c2ccccc2)n1C [Antipyrine] | −0.2127 |
| O=c1cc(-c2ccc(O)cc2)oc2cc(O)cc(O)c12 [Apigenin] | −0.2208 |
| CN[C@@H]1[C@@H](O[C@H]2O[C@H](CO)[C@@H](N)[C@H](O)[C@H]2O)OC2C[C@@H](N)[C@@H](O[C@H]3[C@H](O)[C@@H](O)[C@H](N)C[C@@H]3N)OC2[C@@H]1O (stereo partly drawn) [Apramycin] | −1.1349 |
| OC[C@H]1O[C@@H](Oc2ccc(O)cc2)[C@H](O)[C@@H](O)[C@@H]1O [Arbutin] | 0.1806 |
| NC(N)=NCCCCN=C(N)N [Arcaine sulfate] | 0.3237 |
| COC(=O)C1=CCCN(C)C1 [Arecoline hydrobromide] | 0.1373 |
| C[C@@H]1CC[C@H]2[C@@H](C)C(=O)O[C@@H]3O[C@@]4(C)CC[C@@H]1[C@]32OO4 [Artemisinin] | 4.801 |
| CCCNC(C)C(=O)Nc1c(C)csc1C(=O)OC (stereo not drawn) [Articaine hydrochloride] | 0.836 |
| O=C1O[C@H]([C@@H](O)CO)C(O)=C1O [Ascorbic acid] | 0.3599 |
| COc1ccc(CCN2CCC(Nc3nc4ccccc4n3Cc3ccc(F)cc3)CC2)cc1 [Astemizole] | −0.7215 |
| O=C1C(O)=C([C@H]2CC[C@H](c3ccc(Cl)cc3)CC2)C(=O)c2ccccc21 [Atovaquone] | 0.629 |
| C=C1[C@@H]2CC[C@H]3[C@]4(C)C[C@H](O[C@@H]5O[C@H](CO)[C@@H](OS(=O)(=O)O)[C@H](OS(=O)(=O)O)[C@H]5OC(=O)CC(C)C)C[C@@H](C(=O)O)[C@H]4CC[C@]3(C2)[C@@H]1O [Atractyloside potassium salt] | −0.3937 |
| COc1ccc(CC2c3cc(OC)c(OC)cc3CC[N+]2(C)CCC(=O)OCCCCCOC(=O)CC[N+]2(C)CCc3cc(OC)c(OC)cc3C2Cc2ccc(OC)c(OC)c2)cc1OC (stereo not drawn) [Atracurium besylate] | 1.182 |
| CN1[C@@H]2CC[C@H]1C[C@@H](OC(=O)C(CO)c1ccccc1)C2 (stereo partly drawn) [Atropine sulfate monohydrate] | 1.183 |
| CC1=CC(=O)C2=C(C)C[C@H](O)[C@@H]3[C@H](OC(=O)[C@H]3C)[C@H]12 [Austricine] | −0.5795 |

| Compound | Z-score |
| --- | --- |
| OC(c1ccccc1)(c1ccccc1)C1CCNCC1 [Azacyclonol] | −1.0159 |
| Nc1ncn([C@@H]2O[C@H](CO)[C@@H](O)[C@H]2O)c(=O)n1 [Azacytidine-5] | 16.1728 |
| Nc1nc(O)c2[nH]nnc2n1 [Azaguanine-8] | 2.948 |
| O=C(CCCN1CCN(c2ccccn2)CC1)c1ccc(F)cc1 [Azaperone] | 1.543 |
| CCCC1C(=O)N2C(N(C)C)=Nc3ccc(C)cc3N2C1=O (stereo not drawn) [Azapropazone] | −0.6493 |
| Cn1cnc([N+](=O)[O-])c1Sc1ncnc2nc[nH]c12 [Azathioprine] | 17.2224 |
| Cc1n[nH]c(=O)[nH]c1=O [Azathymine, 6] | −0.2304 |
| CC1(C)S[C@@H]2[C@H](NC(=O)[C@H](NC(=O)N3CCNC3=O)c3ccccc3)C(=O)N2[C@H]1C(=O)O [Azlocillin sodium salt] | −1.1617 |
| C[C@H]1[C@H](NC(=O)/C(=N\OC(C)(C)C(=O)O)c2csc(N)n2)C(=O)N1S(=O)(=O)O [Aztreonam] | 0.1728 |
| CCOC(=O)OC(C)OC(=O)[C@@H]1N2C(=O)[C@@H](NC(=O)[C@H](N)c3ccccc3)[C@H]2SC1(C)C (stereo partly drawn) [Bacampicillin hydrochloride] | 0.09702 |
| CC[C@H](C)[C@H](N)C1=N[C@H](C(=O)N[C@@H](CC(C)C)C(=O)N[C@H](CCC(=O)O)C(=O)N[C@H](C(=O)N[C@H]2CCCCNC(=O)[C@H](CC(N)=O)NC(=O)[C@@H](CC(=O)O)NC(=O)[C@H](Cc3cnc[nH]3)NC(=O)[C@@H](Cc3ccccc3)NC(=O)[C@H]([C@@H](C)CC)NC(=O)[C@@H](CCCN)NC2=O)[C@@H](C)CC)CS1 [Bacitracin] ({Ileψ(thiazoline)Cys}-L[dE]IK[dOrn]I[dF]H[dD]N; lactam 4-C) | −1.0707 |
| CN(C)C(=O)Oc1cc(OC(=O)N(C)C)cc(C(O)CNC(C)(C)C)c1 (stereo not drawn) [Bambuterol hydrochloride] | 0.1858 |
| CCC(=O)OCC(=O)[C@@]1(OC(=O)CC)[C@@H](C)C[C@H]2[C@@H]3CCC4=CC(=O)C=C[C@]4(C)[C@@]3(Cl)[C@@H](O)C[C@@]21C [Beclomethasone dipropionate] | −0.2791 |
| CCC1(C)CC(=O)NC(=O)C1 [Bemegride] | −0.3526 |
| NS(=O)(=O)c1cc2c(cc1C(F)(F)F)NC(Cc1ccccc1)NS2(=O)=O (stereo not drawn) [Bendroflumethiazide] | 2.297 |
| CC(Cc1cccc(C(F)(F)F)c1)NCCOC(=O)c1ccccc1 (stereo not drawn) [Benfluorex hydrochloride] | −1.1069 |
| C/C(=C(\CCOP(=O)(O)O)SC(=O)c1ccccc1)N(C=O)Cc1cnc(C)nc1N [Benfotiamine] | −0.7979 |
| CCCCOc1cc(C(=O)OCCN(CC)CC)ccc1N [Benoxinate hydrochloride] | 0.4398 |
| O=C(CCCN1CCC(n2c(O)nc3ccccc32)CC1)c1ccc(F)cc1 [Benperidol] | −0.2696 |
| NC(CO)C(=O)NNCc1ccc(O)c(O)c1O (stereo not drawn) [Benserazide hydrochloride] | −0.638 |
| NC(=NCc1ccccc1)NC(=O)c1nc(Cl)c(N)nc1N [Benzamil hydrochloride] | −1.083 |
| CC1(C)S[C@@H]2[C@H](NC(=O)Cc3ccccc3)C(=O)N2[C@H]1C(=O)O.CC1(C)S[C@@H]2[C@H](NC(=O)Cc3ccccc3)C(=O)N2[C@H]1C(=O)O.c1ccc(CNCCNCc2ccccc2)cc1 [Benzathine benzylpenicillin] | 0.238 |
| CCc1oc2ccccc2c1C(=O)c1cc(Br)c(O)c(Br)c1 [Benzbromarone] | −0.349 |

| Compound | Z-score |
| --- | --- |
| CCOC(=O)c1ccc(N)cc1 [Benzocaine] | 1.149 |
| CCCCNc1ccc(C(=O)OCCOCCOCCOCCOCCOCCOCCOCCOCCOC)cc1 [Benzonatate] | 0.06563 |
| NS(=O)(=O)c1cc2c(cc1Cl)N=C(CSCc1ccccc1)NS2(=O)=O [Benzthiazide] | −1.594 |
| CN(C)CCCOc1nn(Cc2ccccc2)c2ccccc12 [Benzydamine hydrochloride] | −0.3467 |
| CC1(C)S[C@@H]2[C@H](NC(=O)Cc3ccccc3)C(=O)N2[C@H]1C(=O)O [Benzylpenicillin sodium] | −0.794 |
| C[N+](C)(CCOc1ccccc1)Cc1ccccc1.O=C([O-])c1cc2ccccc2cc1O [Bephenium hydroxynaphthoate] | −0.5444 |
| CC(C)COCC(CN(Cc1ccccc1)c1ccccc1)N1CCCC1 (stereo not drawn) [Bepridil hydrochloride] | −1.7961 |
| COc1ccc2cc3[n+](cc2c1OC)CCc1cc2c(cc1-3)OCO2 [Berberine chloride] | 12.68 |
| COc1c(O)cc2c(c1O)[C@@H]1O[C@H](CO)[C@@H](O)[C@H](O)[C@H]1OC2=O [Bergenin monohydrate] | −0.7293 |
| CC[C@H](CC[C@@H](C)[C@H]1CC[C@H]2[C@@H]3CC=C4C[C@@H](O)CC[C@]4(C)[C@H]3CC[C@]12C)C(C)C [Beta-sistosterol] | −0.8867 |
| CNCCc1ccccn1.CS(=O)(=O)O.CS(=O)(=O)O [Betahistine mesylate] | 1.556 |
| C[C@H]1C[C@H]2[C@@H]3CCC4=CC(=O)C=C[C@]4(C)[C@@]3(F)[C@@H](O)C[C@]2(C)[C@@]1(O)C(=O)CO [Betamethasone] | −0.1891 |
| CC(C)NCC(O)COc1ccc(CCOCC2CC2)cc1 (stereo not drawn) [Betaxolol hydrochloride] | 1.393 |
| NCCc1cc[nH]n1 [Betazole hydrochloride] | −0.1702 |
| CC(C[N+](C)(C)C)OC(N)=O (stereo not drawn) [Bethanechol chloride] | −0.3853 |
| C[N+]1(C)C[C@H](O)C[C@H]1C(=O)[O-] [Betonicine] | 0.1235 |
| C=C(C)[C@@H]1CC[C@]2(CO)CC[C@]3(C)[C@H](CC[C@@H]4[C@@]5(C)CC[C@H](O)C(C)(C)[C@@H]5CC[C@]43C)[C@@H]12 [Betulin] | −1.4148 |
| C=C(C)[C@@H]1CC[C@]2(C(=O)O)CC[C@]3(C)[C@H](CC[C@@H]4[C@@]5(C)CC[C@H](O)C(C)(C)[C@@H]5CC[C@]43C)[C@@H]12 [Betulinic acid] | 0.4119 |
| CC(C)(Oc1ccc(CCNC(=O)c2ccc(Cl)cc2)cc1)C(=O)O [Bezafibrate] | −0.2571 |
| CN1CCc2cc3c(cc2[C@H]1[C@@H]1OC(=O)c2c1ccc1c2OCO1)OCO3 [Bicuculline (+)] | −0.5556 |
| O=C(O)CCCC[C@@H]1SC[C@@H]2NC(=O)N[C@@H]21 [Biotin] | 0.1016 |
| OC(CCN1CCCCC1)(c1ccccc1)C1CC2C=CC1C2 (stereo not drawn) [Biperiden hydrochloride] | −1.1752 |

— US9393221B2, “Methods and compounds for reducing intracellular lipid storage” (THE GENERAL HOSPITAL CORPORATION, priority 2011, dated 2016)
